In US9770439B2, “Hepatitis C virus inhibitors” (priority 2013, dated 2017):
Read-outs that look alike come from different tables or passages of the source.

Tests used:
[1] = test system: HCV replicon, genotype 1a Y93H variant with tyrosine 93 changed to histidine in the NS5A protein; type: cell-based; conditions: BMS-790052 titrated with N47 fixed at 200 nM, genotype 1a Y93H
Procedure: Combinations can be examined for synergistic activity using a variety of putative NS5A-targeting compounds and a variety of test compounds. […] The test compound can be chosen from compounds exemplified below, which were prepared by methods known in the art, or from others disclosed in the literature.
Similarly, BMS-790052 can be tested singly and in combination with a fixed amount of compound N47 in the HCV replicon cell based assay consisting of the genotype 1a Y93H variant with tyrosine 93 changed to histidine in the NS5A protein.

[2] = test system: HCV replicon, genotype-1a variant with glutamine 30 changed to glutamate in the NS5A protein; conditions: cited from earlier work; for EC50: genotype 1a Q30E replicon
[3] = test system: HCV replicon, genotype 1a L31V variant with leucine 31 changed to valine in the NS5A protein; type: cell-based; conditions: BMS-790052 titrated with N47 fixed at 200 nM, genotype 1a L31V
[4] = test system: HCV replicon, genotype-1a variant with glutamine 30 changed to glutamate in the NS5A protein; type: cell-based
From the text: The NS5A synergistic inhibitory effect of test compounds can be determined using various amounts of an NS5A-targeting compound with titration of a second compound of interest. […] In one embodiment, the HCV genotype strain can be genotype 1a containing a change at amino acid 30 of the NS5A protein consisting of glutamine to glutamate. The test compound can be chosen from compounds listed above or from others present in the literature.

[5] = compound alone, read-out: EC50, titrated singly

## COC(=O)N[C@H](C(=O)N1CCC[C@H]1c1ncc(-c2ccc(-c3ccc(-c4cnc([C@@H]5CCCN5C(=O)[C@@H](NC(=O)OC)C(C)C)[nH]4)cc3)cc2)[nH]1)C(C)C [BMS-790052, reference compound]
[1]
  synergistic inhibitory effect for the combination (fold): > 100 fold
[2]; BMS-790052 titrated with P-55 fixed at 200 nM, genotype 1a Q30E
  reciprocal synergistic inhibitory effect for the combination (fold): ~100 fold
[2]; P-55 fixed at 200 nM, read-out: EC50 of BMS-790052 in the presence of a fixed amount of P-55
  EC50: ~2 nM
[2]; [5]
  EC50: ~200 nM
[3]
  synergistic inhibitory effect with the combination (fold): > 100 fold

## CC(C)CC(=O)N[C@H](c1ncc(-c2ccc(-c3ccc(-c4cnc([C@@H](NC(=O)CC(C)C)C(C)C)[nH]4)cc3)cc2)[nH]1)C(C)C [Compound P-55]
[2]; P-55 titrated with BMS-790052 fixed at 200 nM, genotype 1a Q30E
  synergistic inhibitory effect with the combination (fold): > 100 fold
[2]; BMS-790052 fixed at 200 nM, read-out: EC50 of P-55 in the presence of a fixed amount of BMS-790052
  EC50: ~2 nM
[2]; [5]
  EC50: > 200 nM

## COc1ccccc1C(O)C1(C(=O)N[C@H](c2nc(-c3ccc(-c4ccc(-c5c[nH]c([C@@H](NC(=O)C6(C(O)c7ccccc7OC)CC6)C(C)(C)C)n5)cc4)cc3)c[nH]2)C(C)(C)C)CC1 (single isomer, unassigned) [Compound N-135B]
[4]
  Fold-Synergistic 1a (Q30E): >100

## COC(C)(CCO)C(=O)N[C@H](c1nc(-c2ccc(-c3ccc(-c4c[nH]c([C@@H](NC(=O)C(C)(CCO)OC)C(C)(C)C)n4)cc3)cc2)c[nH]1)C(C)(C)C (single isomer, unassigned) [Compound W-258]
[4]
  Fold-Synergistic 1a (Q30E): >100

## COC(C)(CCO)C(=O)N[C@H](c1nc(-c2ccc(-c3ccc(-c4cnc([C@@H](NC(=O)C(C)(CCO)OC)C(C)(C)C)[nH]4)cc3)cc2)c[nH]1)C(C)(C)C (single isomer, unassigned) [Compound W-259]
[4]
  Fold-Synergistic 1a (Q30E): >100

## CC1([C@H](NC(=O)C2CCC(F)(F)CC2)c2cc3ccc(C#Cc4ccc5nc([C@@H](NC(=O)C6CCC(F)(F)CC6)C6(C)CC6)[nH]c5c4)cc3[nH]2)CC1 [Compound B67]
[4]
  Fold-Synergistic 1a (Q30E): >100

## COc1ccccc1C(O)C1(C(=O)N[C@H](c2nc(-c3ccc(-c4ccc(-c5c[nH]c([C@@H](NC(=O)C6(C(O)c7ccccc7OC)CC6)C(C)(C)C)n5)cc4)cc3)c[nH]2)C(C)(C)C)CC1 (single isomer, unassigned) [Compound N-135C]
[4]
  Fold-Synergistic 1a (Q30E): >100
